From patent publication US9439906B2, “Dosing regimen associated with long acting injectable paliperidone esters” (Janssen Pharmaceutica NV, priority 2007, dated 2016)

Assays:
[1] = test system: subjects with schizophrenia; experiment: Efficacy in phase 3 placebo-controlled study R092670-PSY-3007 (PANSS, PSP, CGI-S); assay type: in vivo, human; conditions: for PANSS Total Score End point Mean (SD): LOCF; for PANSS Total Score Change from Baseline Mean (SD): end point LOCF, placebo −2.9; for mean improvement in the PSP score from baseline to end point: placebo 1.7; for subjects who achieved responder status (30% or larger decrease on PANSS total scores): placebo 20.0%
Text: The study included a screening period of up to 7 days and a 13-week double-blind treatment period. The screening period included a washout of disallowed psychotropic medications. […] Subjects who had source documentation of previous exposure to the above medications and were currently taking another antipsychotic regimen continued their current treatment through Day-1. At the beginning of the double-blind treatment period, subjects were randomly assigned in a 1:1:1:1 ratio to 1 of 4 treatment groups: placebo or paliperidone palmitate 25 mg eq., 100 mg eq., or 150 mg eq. Study medication was administered as 4 doses: an initial i.m. injection of 150 mg eq. of paliperidone palmitate or placebo followed by 3 fixed i.m. doses of placebo or paliperidone palmitate [25, 100, or 150 mg eq.] on Days 8, 36, and 64. The initial injection of study medication was given in the deltoid muscle. Subsequent injections were given either in the deltoid or gluteal muscle at the discretion of the investigator. Randomized subjects were to remain in the study for 28 days after the last injection on Day 64 with the end of study visit scheduled for Day 92 during the double-blind period. The entire study, including the screening period, lasted approximately 14 weeks. Samples for pharmacokinetic (PK) evaluation were collected on Day 1, prior to the first injection and on Days 2, 4, 6, 8, 15, 22, 36, 64 and 92. Efficacy and safety were evaluated regularly throughout the study. A pharmacogenomic blood sample (10 mL) was collected from subjects who gave separate written informed consent for this part of the study. Participation in the pharmacogenomic research was optional. Approximately 105 to 115 mL of whole blood was collected during the study. The primary endpoint was the change in the PANSS total score from baseline (i.e., the start of double-blind treatment, Day 1) to the end of the double-blind treatment period (i.e., Day 92 or the last post baseline assessment). The key secondary efficacy endpoint was the change in the Personal and Social Performance Scale (PSP) from baseline to the end of the double-blind treatment period. The other secondary efficacy endpoint was the change in the Clinical Global Impression-Severity (CGI-S) scores from baseline to the end of the double-blind treatment period. Other endpoints included the change from baseline in subject ratings of sleep quality and daytime drowsiness using a visual analogue scale (VAS), the onset of therapeutic effect, responder rate, and the change from baseline to end point in PANSS subscales and […] factors. All randomized subjects who received at least 1 dose of double-blind study drug and had both baseline and at least one post baseline efficacy measurement (PANSS, PSP, or CGI-S) during the double-blind treatment period were included in the intent-to-treat efficacy analyses. […] This procedure is referred to as the Dunnett-Bonferroni-based parallel gatekeeping procedure. The change from baseline in PANSS total score at each visit and at end point was analyzed using an analysis of covariance (ANCOVA) model. The last observation carried forward (LOCF) method was used. The model included treatment and country as factors and baseline PANSS total score as a covariate. Treatment effect was based on the difference in least-squares mean change. […] Treatment-by-country and treatment-by-baseline PANSS total score interactions were explored using the same ANCOVA model as the one for the analysis of the primary endpoint. If either term was statistically significant at the predefined 2-sided significance level of 0.10, further evaluations of the effect of other covariates were to be performed to assess the nature of the interaction and identify possible causes. […] The analysis of the key secondary endpoint, change in PSP score at end point, was conducted by means of an ANCOVA model with treatment and country as factors and the baseline score as the covariate. […]

[2] = Safety and local tolerability in the gluteal versus deltoid multiple-dose study; conditions: for mean injection site pain VSA score: day 1, 8 hours after injection
[3] = Treatment-emergent adverse events in the single-dose dose-proportionality study; conditions: single dose 25-150 mg-eq.
Text: The subjects were assigned into eight treatment groups: paliperidone palmitate 25 (n=48), 50 (n=50), 100 (n=51) or 150 (n=52) mg-eq. injected into either the deltoid or gluteal muscle.

[4] = 100 mg-eq., combined injection sites

## CCCCCCCCCCCCCCCC(=O)OC1CCCn2c1nc(C)c(CCN1CCC(c3noc4cc(F)ccc34)CC1)c2=O (racemic) [paliperidone palmitate, (±)-3-[2-[4-(6-fluoro-1,2-benzisoxazol-3-yl)-1-piperidinyl]ethyl]-6,7,8,9-tetrahydro-2-methyl-4-oxo-4H-pyrido[1,2-α]pyrimidin-9-yl hexadecanoate]
[1]; 25 mg eq. and 150 mg eq. groups
  earliest time point of statistically significant improvement over placebo in change in PANSS total score: Day 8
[1]; 25 mg eq. group
  PANSS Total Score change, Diff of LS Means (SE) versus placebo: −5.1 (2.01)
  PANSS Total Score Change from Baseline Mean (SD): −8.0 (19.90)
  mean improvement in the PSP score from baseline to end point: 2.9
  subjects who achieved responder status (30% or larger decrease on PANSS total scores): 33.5%
[1]; 25 mg eq. group (150 mg eq. Day 1, then 25 mg eq. Days 8, 36, 64)
  PANSS Total Score End point Mean (SD): 78.8 (19.88)
[1]; 100 mg eq. group
  PANSS Total Score change, Diff of LS Means (SE) versus placebo: −8.7 (2.00)
  PANSS Total Score Change from Baseline Mean (SD): −11.6 (17.63)
  mean improvement in the PSP score from baseline to end point: 6.1
  subjects who achieved responder status (30% or larger decrease on PANSS total scores): 41.0%
[1]; 100 mg eq. group (150 mg eq. Day 1, then 100 mg eq. Days 8, 36, 64)
  PANSS Total Score End point Mean (SD): 74.6 (18.06)
[1]; 150 mg eq. group
  PANSS Total Score change, Diff of LS Means (SE) versus placebo: −9.8 (2.00)
  PANSS Total Score Change from Baseline Mean (SD): −13.2 (18.48)
  mean improvement in the PSP score from baseline to end point: 8.3
  subjects who achieved responder status (30% or larger decrease on PANSS total scores): 40.0%
[1]; 150 mg eq. group (150 mg eq. Days 1, 8, 36, 64)
  PANSS Total Score End point Mean (SD): 75.2 (18.59)
[1]; all 3 dose groups
  time point as of which improvement over placebo in change in PANSS total score was statistically significant: Day 22
[2]; [4]
  adverse event: diastolic hypotension: 12%
  adverse event: hypotension: 14%
  adverse event: injection site pain: 14%
  adverse event: orthostatic hypotension: 24%
[2]; 100 mg-eq., four injections
  deaths in the study: no deaths
  serious adverse events (worsening of psychosis) that led to discontinuations: four
  tolerability: well tolerated
[2]; deltoid
  mean injection site pain VSA score: 10.8
[2]; gluteal
  mean injection site pain VSA score: 3.3
[3]
  Treatment-emergent AE: headache: 7%
  Treatment-emergent AE: insomnia: 5%
  Treatment-emergent AE: schizophrenia: 6%
  Treatment-emergent AE: tachycardia: 10%
  deaths: No deaths
  subjects discontinued due to TEAs: 2%
